Measured values as given in paper PMC5392334, “Discovery and characterization of a novel irreversible EGFR mutants selective and potent kinase inhibitor CHMFL-EGFR-26 with a distinct binding mode” (Oncotarget, 2017).

Key:
YSK4 = molecular target: T1, YSK4 (Homo sapiens, UniProt Q56UN5); assay: KinomeScan; assay type: binding; details: read-out: % control
T1 construct: purchased DiscoveRx KINOMEscan

HCK = molecular target: T2, HCK (Homo sapiens, UniProt P08631); assay: KinomeScan; assay type: binding; details: read-out: % control
T2 construct: purchased DiscoveRx KINOMEscan

MLK2 = molecular target: T3, MLK2 (Homo sapiens, UniProt Q02779); assay: KinomeScan; assay type: binding; details: read-out: % control
T3 construct: purchased DiscoveRx KINOMEscan

[1] = tested on: NSCLC cell lines (H1975, HCC827, PC9, H3255; EGFR wt lines); assay: Apoptosis effect examination (Caspase-3 and PARP cleavage); assay type: cell-based, human
Description: (§1) We then examined CHMFL-EGFR-26's effect on cell cycle progression and apoptosis.
Cells were then washed in PBS and lysed in cell lysis buffer. PARP, Caspase-3, GAPDH antibodies were used for immunoblotting.

WNK4 = molecular target: T4, WNK4 (Homo sapiens, UniProt Q96J92); assay: KinomeScan; assay type: binding; details: read-out: % control
T4 construct: purchased DiscoveRx KINOMEscan

PAK6 = molecular target: T5, PAK6 (Homo sapiens, UniProt Q9NQU5); assay: KinomeScan; assay type: binding; details: read-out: % control
T5 construct: purchased DiscoveRx KINOMEscan

PRKD1 = molecular target: T6, PRKD1 (Homo sapiens, UniProt Q15139); assay: KinomeScan; assay type: binding; details: read-out: % control
T6 construct: purchased DiscoveRx KINOMEscan

BRK = molecular target: T7, BRK (Homo sapiens, UniProt Q13882); assay: KinomeScan; assay type: binding; details: read-out: % control
T7 construct: purchased DiscoveRx KINOMEscan

MLCK = molecular target: T8, MLCK (Homo sapiens, UniProt Q32MK0); assay: KinomeScan; assay type: binding; details: read-out: % control
T8 construct: purchased DiscoveRx KINOMEscan

PCTK1 = molecular target: T9, PCTK1 (Homo sapiens, UniProt Q00536); assay: KinomeScan; assay type: binding; details: read-out: % control
T9 construct: purchased DiscoveRx KINOMEscan

PIK3C2B = molecular target: T10, PIK3C2B (Homo sapiens, UniProt O00750); assay: KinomeScan; assay type: binding; details: read-out: % control
T10 construct: purchased DiscoveRx KINOMEscan

GRK3 = molecular target: T11, GRK3 (Homo sapiens, UniProt P35626); assay: KinomeScan; assay type: binding; details: read-out: % control
T11 construct: purchased DiscoveRx KINOMEscan

CASK = molecular target: T12, CASK (Homo sapiens, UniProt O14936); assay: KinomeScan; assay type: binding; details: read-out: % control
T12 construct: purchased DiscoveRx KINOMEscan

SNRK = molecular target: T13, SNRK (Homo sapiens, UniProt Q9NRH2); assay: KinomeScan; assay type: binding; details: read-out: % control
T13 construct: purchased DiscoveRx KINOMEscan

ROCK2 = molecular target: T14, ROCK2 (Homo sapiens, UniProt O75116); assay: KinomeScan; assay type: binding; details: read-out: % control
T14 construct: purchased DiscoveRx KINOMEscan

ROS1 = molecular target: T15, ROS1 (Homo sapiens, UniProt P08922); assay: KinomeScan; assay type: binding; details: read-out: % control
T15 construct: purchased DiscoveRx KINOMEscan

[2] = tested on: BaF3-TEL-EGFR-L858R-C797S; assay: Anti-proliferation, BaF3 isogenic cell lines (CellTiter-Glo); assay type: cell-based; details: Mus musculus, 72 hours, triplet testing
BUB1 = molecular target: T16, BUB1 (Homo sapiens, UniProt O43683); assay: KinomeScan; assay type: binding; details: read-out: % control
T16 construct: purchased DiscoveRx KINOMEscan

[3] = molecular target: T17, ABL1(T315I)-phosphorylated (Homo sapiens, UniProt P00519, T315I); assay: KinomeScan; assay type: binding; details: read-out: % control
T17 construct: purchased DiscoveRx KINOMEscan

GRK1 = molecular target: T18, GRK1 (Homo sapiens, UniProt Q15835); assay: KinomeScan; assay type: binding; details: read-out: % control
T18 construct: purchased DiscoveRx KINOMEscan

CAMK2A = molecular target: T19, CAMK2A (Homo sapiens, UniProt Q9UQM7); assay: KinomeScan; assay type: binding; details: read-out: % control
T19 construct: purchased DiscoveRx KINOMEscan

MEK2 = molecular target: T20, MEK2 (Homo sapiens, UniProt P36507); assay: KinomeScan; assay type: binding; details: read-out: % control
T20 construct: purchased DiscoveRx KINOMEscan

MERTK = molecular target: T21, MERTK (Homo sapiens, UniProt Q12866); assay: KinomeScan; assay type: binding; details: read-out: % control
T21 construct: purchased DiscoveRx KINOMEscan

ANKK1 = molecular target: T22, ANKK1 (Homo sapiens, UniProt Q8NFD2); assay: KinomeScan; assay type: binding; details: read-out: % control
T22 construct: purchased DiscoveRx KINOMEscan

[4] = tested on: NSCLC cell lines (H1975, HCC827, PC9, H3255; A549, H1355); assay: Cell cycle analysis; assay type: cell-based, human
Procedure: as §1
The cells were fixed in 70% cold ethanol and incubated at −20 °C overnight then stained with PI/RNase staining buffer (BD Pharmingen). Flow cytometry was performed using a FACS Calibur (BD), and results were analyzed by ModFit software.

FLT3(D835V) = molecular target: T23, FLT3(D835V) (Homo sapiens, UniProt P36888, D835V); assay: KinomeScan; assay type: binding; details: read-out: % control
T23 construct: purchased DiscoveRx KINOMEscan

TESK1 = molecular target: T24, TESK1 (Homo sapiens, UniProt Q15569); assay: KinomeScan; assay type: binding; details: read-out: % control
T24 construct: purchased DiscoveRx KINOMEscan

p38-alpha = molecular target: T25, p38-alpha (Homo sapiens, UniProt Q16539); assay: KinomeScan; assay type: binding; details: read-out: % control
T25 construct: purchased DiscoveRx KINOMEscan

RIPK4 = molecular target: T26, RIPK4 (Homo sapiens, UniProt P57078); assay: KinomeScan; assay type: binding; details: read-out: % control
T26 construct: purchased DiscoveRx KINOMEscan

GAK = molecular target: T27, GAK (Homo sapiens, UniProt O14976); assay: KinomeScan; assay type: binding; details: read-out: % control
T27 construct: purchased DiscoveRx KINOMEscan

p38-beta = molecular target: T28, p38-beta (Homo sapiens, UniProt Q15759); assay: KinomeScan; assay type: binding; details: read-out: % control
T28 construct: purchased DiscoveRx KINOMEscan

[5] = molecular target: T29, ABL1(F317I)-phosphorylated (Homo sapiens, UniProt P00519, F317I); assay: KinomeScan; assay type: binding; details: read-out: % control
T29 construct: purchased DiscoveRx KINOMEscan

FLT3(R834Q) = molecular target: T30, FLT3(R834Q) (Homo sapiens, UniProt P36888, R834Q); assay: KinomeScan; assay type: binding; details: read-out: % control
T30 construct: purchased DiscoveRx KINOMEscan

EPHA1 = molecular target: T31, EPHA1 (Homo sapiens, UniProt P21709); assay: KinomeScan; assay type: binding; details: read-out: % control
T31 construct: purchased DiscoveRx KINOMEscan

ERBB2 = molecular target: T32, ERBB2 (Homo sapiens, UniProt P04626); assay: KinomeScan; assay type: binding; details: read-out: % control
T32 construct: purchased DiscoveRx KINOMEscan

LATS1 = molecular target: T33, LATS1 (Homo sapiens, UniProt O95835); assay: KinomeScan; assay type: binding; details: read-out: % control
T33 construct: purchased DiscoveRx KINOMEscan

TTK = molecular target: T34, TTK (Homo sapiens, UniProt P33981); assay: KinomeScan; assay type: binding; details: read-out: % control
T34 construct: purchased DiscoveRx KINOMEscan

ACVR2B = molecular target: T35, ACVR2B (Homo sapiens, UniProt Q13705); assay: KinomeScan; assay type: binding; details: read-out: % control
T35 construct: purchased DiscoveRx KINOMEscan

PKN1 = molecular target: T36, PKN1 (Homo sapiens, UniProt Q16512); assay: KinomeScan; assay type: binding; details: read-out: % control
T36 construct: purchased DiscoveRx KINOMEscan

MAK = molecular target: T37, MAK (Homo sapiens, UniProt P20794); assay: KinomeScan; assay type: binding; details: read-out: % control
T37 construct: purchased DiscoveRx KINOMEscan

T28 sequence (Q15759 whole entry): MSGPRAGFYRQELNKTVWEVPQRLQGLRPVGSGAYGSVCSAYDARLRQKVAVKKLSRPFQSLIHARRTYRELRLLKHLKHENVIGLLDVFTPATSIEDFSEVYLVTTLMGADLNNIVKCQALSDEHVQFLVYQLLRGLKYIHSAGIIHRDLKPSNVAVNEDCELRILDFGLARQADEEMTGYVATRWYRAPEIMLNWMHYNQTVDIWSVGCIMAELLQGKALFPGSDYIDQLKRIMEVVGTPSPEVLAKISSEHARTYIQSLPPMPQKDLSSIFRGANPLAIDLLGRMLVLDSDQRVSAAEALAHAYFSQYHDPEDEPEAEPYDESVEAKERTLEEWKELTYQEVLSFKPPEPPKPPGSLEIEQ
T36 sequence (Q16512 whole entry): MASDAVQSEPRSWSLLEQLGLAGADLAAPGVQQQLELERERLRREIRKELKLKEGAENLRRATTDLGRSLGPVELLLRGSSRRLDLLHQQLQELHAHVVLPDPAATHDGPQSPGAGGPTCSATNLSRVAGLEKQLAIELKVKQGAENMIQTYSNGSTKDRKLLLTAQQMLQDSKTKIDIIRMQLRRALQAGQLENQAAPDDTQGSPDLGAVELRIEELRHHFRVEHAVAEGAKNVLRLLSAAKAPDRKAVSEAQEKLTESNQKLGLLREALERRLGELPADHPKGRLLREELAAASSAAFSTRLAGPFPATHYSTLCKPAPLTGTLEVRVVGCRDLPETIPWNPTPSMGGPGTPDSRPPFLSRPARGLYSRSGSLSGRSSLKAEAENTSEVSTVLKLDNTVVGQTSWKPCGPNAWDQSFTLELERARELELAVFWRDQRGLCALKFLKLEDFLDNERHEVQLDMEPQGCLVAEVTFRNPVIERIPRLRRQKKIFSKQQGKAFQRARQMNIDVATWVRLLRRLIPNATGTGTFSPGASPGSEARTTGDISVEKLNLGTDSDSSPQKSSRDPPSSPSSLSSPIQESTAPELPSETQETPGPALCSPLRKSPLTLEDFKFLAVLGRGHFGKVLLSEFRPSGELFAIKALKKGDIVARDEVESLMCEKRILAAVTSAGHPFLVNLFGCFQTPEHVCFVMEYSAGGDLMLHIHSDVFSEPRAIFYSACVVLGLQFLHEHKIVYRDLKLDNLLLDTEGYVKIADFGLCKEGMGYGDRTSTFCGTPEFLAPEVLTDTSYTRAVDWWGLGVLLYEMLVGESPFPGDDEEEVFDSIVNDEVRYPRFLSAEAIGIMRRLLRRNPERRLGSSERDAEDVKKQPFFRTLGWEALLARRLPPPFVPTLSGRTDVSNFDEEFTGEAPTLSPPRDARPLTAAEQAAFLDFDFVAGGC
T15 sequence (P08922 28-2347): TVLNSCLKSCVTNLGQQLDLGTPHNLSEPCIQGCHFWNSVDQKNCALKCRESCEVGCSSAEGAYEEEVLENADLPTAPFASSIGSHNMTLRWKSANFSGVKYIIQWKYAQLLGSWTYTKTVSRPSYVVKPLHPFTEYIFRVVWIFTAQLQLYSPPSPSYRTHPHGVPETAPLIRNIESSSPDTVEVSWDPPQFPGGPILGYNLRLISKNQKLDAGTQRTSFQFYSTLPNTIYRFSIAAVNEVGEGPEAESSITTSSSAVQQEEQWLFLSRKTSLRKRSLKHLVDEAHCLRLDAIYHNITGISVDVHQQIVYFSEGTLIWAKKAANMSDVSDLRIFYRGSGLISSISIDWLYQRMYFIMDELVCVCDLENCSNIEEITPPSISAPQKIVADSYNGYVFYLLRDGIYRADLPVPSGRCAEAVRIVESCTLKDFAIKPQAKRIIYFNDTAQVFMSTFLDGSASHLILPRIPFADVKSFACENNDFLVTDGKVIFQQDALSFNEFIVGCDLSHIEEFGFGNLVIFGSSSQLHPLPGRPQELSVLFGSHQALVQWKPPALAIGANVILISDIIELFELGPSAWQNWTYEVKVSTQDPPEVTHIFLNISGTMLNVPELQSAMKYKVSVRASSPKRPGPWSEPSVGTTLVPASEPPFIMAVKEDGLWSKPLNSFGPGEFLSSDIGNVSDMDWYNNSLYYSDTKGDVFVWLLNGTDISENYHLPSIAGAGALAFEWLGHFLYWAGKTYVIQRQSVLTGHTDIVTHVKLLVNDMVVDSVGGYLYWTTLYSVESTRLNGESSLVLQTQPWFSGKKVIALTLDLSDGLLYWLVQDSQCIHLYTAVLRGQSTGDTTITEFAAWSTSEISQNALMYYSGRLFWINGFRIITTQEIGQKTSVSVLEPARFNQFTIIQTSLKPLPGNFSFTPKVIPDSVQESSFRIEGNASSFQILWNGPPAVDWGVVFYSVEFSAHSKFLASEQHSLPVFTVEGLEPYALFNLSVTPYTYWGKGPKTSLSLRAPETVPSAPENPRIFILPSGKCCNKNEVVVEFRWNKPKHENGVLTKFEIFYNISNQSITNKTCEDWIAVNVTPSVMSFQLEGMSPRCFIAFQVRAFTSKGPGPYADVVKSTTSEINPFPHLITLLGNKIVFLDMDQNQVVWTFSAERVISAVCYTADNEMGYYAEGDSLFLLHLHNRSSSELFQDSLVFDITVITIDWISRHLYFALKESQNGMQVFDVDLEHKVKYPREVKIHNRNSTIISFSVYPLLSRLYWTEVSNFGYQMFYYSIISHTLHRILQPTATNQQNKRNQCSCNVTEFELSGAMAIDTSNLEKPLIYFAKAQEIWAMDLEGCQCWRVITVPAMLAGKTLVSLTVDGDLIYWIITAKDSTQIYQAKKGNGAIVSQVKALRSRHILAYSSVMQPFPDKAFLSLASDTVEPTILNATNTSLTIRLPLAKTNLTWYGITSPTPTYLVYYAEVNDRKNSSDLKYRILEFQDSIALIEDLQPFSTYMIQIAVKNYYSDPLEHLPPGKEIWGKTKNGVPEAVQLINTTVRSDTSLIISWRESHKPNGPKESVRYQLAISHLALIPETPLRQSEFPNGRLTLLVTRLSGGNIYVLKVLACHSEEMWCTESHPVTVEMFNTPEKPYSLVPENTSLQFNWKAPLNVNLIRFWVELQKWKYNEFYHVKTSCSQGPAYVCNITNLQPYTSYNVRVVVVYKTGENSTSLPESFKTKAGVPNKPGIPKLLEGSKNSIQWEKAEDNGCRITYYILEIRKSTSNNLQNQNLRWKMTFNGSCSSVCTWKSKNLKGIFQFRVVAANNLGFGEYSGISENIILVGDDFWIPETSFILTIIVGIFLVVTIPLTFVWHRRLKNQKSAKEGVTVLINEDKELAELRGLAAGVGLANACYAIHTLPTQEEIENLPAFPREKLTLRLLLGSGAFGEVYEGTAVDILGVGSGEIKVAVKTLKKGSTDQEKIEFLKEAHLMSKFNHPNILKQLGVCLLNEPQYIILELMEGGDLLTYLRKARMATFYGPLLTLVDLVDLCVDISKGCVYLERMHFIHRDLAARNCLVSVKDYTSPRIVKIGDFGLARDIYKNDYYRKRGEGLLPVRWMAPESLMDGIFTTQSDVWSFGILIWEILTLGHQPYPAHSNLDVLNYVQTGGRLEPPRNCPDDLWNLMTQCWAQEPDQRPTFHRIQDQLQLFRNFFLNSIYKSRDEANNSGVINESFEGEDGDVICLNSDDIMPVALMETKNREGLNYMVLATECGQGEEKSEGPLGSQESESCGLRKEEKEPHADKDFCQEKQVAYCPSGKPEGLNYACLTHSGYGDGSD
T20 sequence (P36507 whole entry): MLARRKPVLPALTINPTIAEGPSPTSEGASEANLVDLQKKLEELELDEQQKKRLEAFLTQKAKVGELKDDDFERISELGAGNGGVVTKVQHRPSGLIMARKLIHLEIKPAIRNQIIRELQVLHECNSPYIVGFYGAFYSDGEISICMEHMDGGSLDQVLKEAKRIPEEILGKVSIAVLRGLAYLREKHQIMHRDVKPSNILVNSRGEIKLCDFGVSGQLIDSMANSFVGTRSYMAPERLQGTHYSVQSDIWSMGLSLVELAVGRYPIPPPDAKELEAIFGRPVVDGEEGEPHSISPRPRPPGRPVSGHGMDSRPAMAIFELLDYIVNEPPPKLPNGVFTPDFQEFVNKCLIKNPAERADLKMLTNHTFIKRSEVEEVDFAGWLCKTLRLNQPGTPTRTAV
T9 sequence (Q00536 whole entry): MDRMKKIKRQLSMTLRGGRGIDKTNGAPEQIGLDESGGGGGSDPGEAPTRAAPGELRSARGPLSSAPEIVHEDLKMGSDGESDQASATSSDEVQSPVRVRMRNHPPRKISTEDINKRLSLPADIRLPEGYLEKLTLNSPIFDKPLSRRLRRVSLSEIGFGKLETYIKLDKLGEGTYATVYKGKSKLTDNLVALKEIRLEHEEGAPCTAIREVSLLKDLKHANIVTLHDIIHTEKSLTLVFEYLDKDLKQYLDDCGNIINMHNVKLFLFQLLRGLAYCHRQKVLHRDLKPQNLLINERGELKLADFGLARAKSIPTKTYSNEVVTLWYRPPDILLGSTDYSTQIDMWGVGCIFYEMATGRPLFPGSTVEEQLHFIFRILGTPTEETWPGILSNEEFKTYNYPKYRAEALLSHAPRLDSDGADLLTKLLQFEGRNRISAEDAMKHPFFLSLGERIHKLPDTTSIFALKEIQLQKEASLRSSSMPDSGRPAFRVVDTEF
T35 sequence (Q13705 19-512): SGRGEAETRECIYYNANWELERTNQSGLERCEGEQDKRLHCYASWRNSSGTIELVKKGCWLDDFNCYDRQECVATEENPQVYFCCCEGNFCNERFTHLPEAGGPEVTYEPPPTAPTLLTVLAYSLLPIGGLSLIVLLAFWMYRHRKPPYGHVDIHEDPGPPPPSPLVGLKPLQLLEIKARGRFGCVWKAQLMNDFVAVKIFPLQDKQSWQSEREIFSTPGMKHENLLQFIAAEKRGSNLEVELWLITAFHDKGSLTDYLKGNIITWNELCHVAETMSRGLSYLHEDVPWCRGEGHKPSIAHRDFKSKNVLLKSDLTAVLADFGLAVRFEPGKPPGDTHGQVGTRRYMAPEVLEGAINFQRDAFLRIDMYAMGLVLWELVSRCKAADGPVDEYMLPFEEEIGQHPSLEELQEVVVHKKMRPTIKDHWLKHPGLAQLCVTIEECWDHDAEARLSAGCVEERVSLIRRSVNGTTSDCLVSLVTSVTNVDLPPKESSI

Molecule `C=CC(=O)N1CCC[C@@H](n2nc(-c3ccc(OCc4cccc(C)n4)c(Cl)c3)c3c(N)ncnc32)C1` [CHMFL-EGFR-26] has a remaining binding at 1 µM (YSK4) of 67%, a remaining binding at 1 µM (HCK) of 44% and a remaining binding at 1 µM (MLK2) of 80%. For the same molecule, the “Caspase-3 and PARP cleavage (apoptosis)” value ([1]; EGFR wt NSCLC cell lines, 72hrs) was “no cleaved Caspase-3 and PARP detected”, the “Caspase-3 and PARP cleavage (apoptosis)” value ([1]; H1975, HCC827, PC9 and H3255, 30nM, 24hrs) was “sufficient to induce Caspase-3 and PARP cleavage” and the remaining binding at 1 µM (WNK4) was 86%. For the same molecule, the remaining binding at 1 µM (PAK6) was 74%, the remaining binding at 1 µM (PRKD1) was 85% and the remaining binding at 1 µM (BRK) was 26%. The remaining binding at 1 µM (MLCK) was 100%, the remaining binding at 1 µM (PCTK1) was 100% and the remaining binding at 1 µM (PIK3C2B) was 100%. For the same molecule, the remaining binding at 1 µM (GRK3) was 100%, the remaining binding at 1 µM (CASK) was 95% and the remaining binding at 1 µM (SNRK) was 100%. The remaining binding at 1 µM (ROCK2) was 100%, the remaining binding at 1 µM (ROS1) was 89% and the GI50 [2] was 3.2 µM. It also gave a remaining binding at 1 µM (BUB1) of 76%, a remaining binding at 1 µM [3] of 98% and a remaining binding at 1 µM (GRK1) of 88%. The remaining binding at 1 µM (CAMK2A) was 99%, the remaining binding at 1 µM (MEK2) was 1.1% and the remaining binding at 1 µM (MERTK) was 79%. The remaining binding at 1 µM (ANKK1) was 94%, the cell cycle progression ([4]; H1975, HCC827, PC9 and H3255 (EGFR mutants), 24-hour) was “dramatically blocked cell cycle at G0/G1 phase” and the cell cycle progression ([4]; wild-type EGFR lines A549 and H1355, up to 3 μM, 72-hour) was “did not cause cell cycle arrest”. It also gave a remaining binding at 1 µM (FLT3(D835V)) of 70%, a remaining binding at 1 µM (TESK1) of 93% and a remaining binding at 1 µM (p38-alpha) of 86%. The remaining binding at 1 µM (RIPK4) was 96%, the remaining binding at 1 µM (GAK) was 72% and the remaining binding at 1 µM (p38-beta) was 100%. It also gave a remaining binding at 1 µM [5] of 98%, a remaining binding at 1 µM (FLT3(R834Q)) of 100% and a remaining binding at 1 µM (EPHA1) of 42%. The remaining binding at 1 µM (ERBB2) was 0%, the remaining binding at 1 µM (LATS1) was 82% and the remaining binding at 1 µM (TTK) was 95%. The remaining binding at 1 µM (ACVR2B) was 85%, the remaining binding at 1 µM (PKN1) was 99% and the remaining binding at 1 µM (MAK) was 100%.
